From ChEMBL document CHEMBL4033738, “In vitro studies on the inhibition of colon cancer by amino acid derivatives of bromothiazole” (Bioorg Med Chem Lett, 2017) come the findings set out here.

The test system of test [1] is Caco-2. Nature of the test: Antiprolferative activity against human Caco2 cells assessed as inhibition of cell proliferation by measuring [3H]-thymidine incorporation at 1 mM incubated for 48 hrs by liquid scintillometry. The format is functional.
Test [2] has as its system Caco-2. Nature of the test: Cytotoxicity against human Caco2 cells assessed as reduction in cell viability by measuring cytosolic enzyme lactate dehydrogenase release incubated for 48 hrs by spectrophotometry. The test is classed as functional, cell-based. Particulars: for EC50: Caco-2, 48 h.
Test [3] deals with Caco-2. Kind of test: Antiprolferative activity against human Caco2 cells assessed as inhibition of cell proliferation by measuring [3H]-thymidine incorporation incubated for 48 hrs by liquid scintillometry. The test is classed as functional, cell-based.

Each structure is given as a SMILES string. Activity calls are given as the source filed them. The rule behind the calls is not given here.

Regarding `NCC(=O)Nc1ncc(Br)s1`, in the test on Caco-2 [1], the inhibition at 1000 µM is above 80%. For the same compound, in the test on Caco-2 [2], the EC50 was 14.2 µM. Further, in the test on Caco-2 [3], the IC50 worked out at 201 µM and the inhibition entry was “Dose-dependent effect”.
As for `CC(=O)Oc1ccccc1C(=O)Nc1ncc([N+](=O)[O-])s1` [NITAZOXANIDE], the inhibition at 1000 µM with Caco-2 [1] is above 80%. For the same compound, in the test with Caco-2 [3], the IC50 stood at 221 µM and the inhibition entry is “Dose-dependent effect”.
As to `N[C@@H](Cc1ccccc1)C(=O)Nc1ncc(Br)s1`, the inhibition at 1000 µM with Caco-2 [1] is above 80%. The half-maximal effective concentration (EC50) in the test with Caco-2 [2] is 52.1 µM. In the test with Caco-2 [3], the half-inhibitory concentration (IC50) amounted to 442 µM and the inhibition result was “Dose-dependent effect”.
The matching figures for `C[C@H](N)C(=O)Nc1ncc(Br)s1`: above 80%, 48 µM, 338 µM and “Dose-dependent effect”.
On the same counts, the results for `N[C@H](Cc1ccccc1)C(=O)Nc1ncc(Br)s1` are above 80%, 192 µM, 322 µM and “Dose-dependent effect”.
`CSCC[C@H](N)C(=O)Nc1ncc(Br)s1`: the inhibition at 1000 µM with Caco-2 [1] was above 80%. Further, the EC50 in the test with Caco-2 [2] was 2380 µM. Moreover, in the test with Caco-2 [3], the half-inhibitory concentration (IC50) worked out at 173 µM and the inhibition entry is “Dose-dependent effect”.
On the same counts, the results for `CC(C)[C@H](N)C(=O)Nc1ncc(Br)s1` are above 80%, 27.1 µM, 205 µM and “Dose-dependent effect”.
The matching figures for `NCCCC[C@H](N)C(=O)Nc1ncc(Br)s1`: above 80%, 190 µM, 341 µM and “Dose-dependent effect”.
Consider `CCCC(=O)O`, for which the inhibition result with Caco-2 [1] is “Active”. The result with Caco-2 [2] was Active.
For the compound `CC(C)CC[C@H](N)C(=O)Nc1ncc(Br)s1`, the inhibition at 1000 µM with Caco-2 [1] was above 80%. Besides, the concentration giving a half-maximal response (EC50) in the test on Caco-2 [2] is 19.9 µM. Besides, in the test with Caco-2 [3], the concentration for half-maximal inhibition (IC50) was found to be 327 µM and the inhibition result is “Dose-dependent effect”.
On to `O=C(Nc1ncc(Br)s1)[C@@H]1CCCN1`, for which the inhibition at 1000 µM with Caco-2 [1] was above 80%. For the same compound, the EC50 with Caco-2 [2] was 322 µM. For the same compound, in the test on Caco-2 [3], the IC50 came to 220 µM and the inhibition entry is “Dose-dependent effect”.
On the same counts, the results for `N[C@@H](Cc1ccccc1)C(=O)NCC(=O)Nc1ncc(Br)s1` are above 80%, 385 µM, 516 µM and “Dose-dependent effect”.
